Source: patent US8497271B2, “Modulators of G protein-coupled receptor 88” (Bristol-Myers Squibb Company, priority 2009, dated 2013)
Like-named read-outs stand apart in the source and are kept apart here.

Target: G protein-coupled receptor 88 (Homo sapiens, UniProt Q9GZN0)
Assay: EC50 of select compounds as GPR88 modulators (Table 2; GTPγS assay and cAMP HTRF assay are both described, and the one used is not stated)
Format: cell-based
Conditions: read-out: Range (EC50)
Experimental: 96 well GTPγS assay plates were purchased from Perkin Elmer. Wheat Germ Agglutinin PVT SPA beads and ^35S-GTPγS were purchased from Amersham GDP, GTPγS and all buffer reagents were from Sigma. 384 well white NBS plates were purchased from corning. Pertussis toxin was purchased from Calbiochem. All cell culture reagents were purchased from Invitrogen. Forskolin was purchased from Sigma. The cAMP HTRF kit was purchased fron Cisbio International.
The GTPγS assay buffer consisted of 10 mM MgCl2, 180 mM NaCl, 200 uM GDP, 0.167 mg/ml DTT, 1 mM EGTA and 20 mM HEPES pH7.4. This buffer was used for dilution of membranes, beads, and ^35S GTPγS components. To each well of the 96 well assay plate 48 ul assay buffer, 2 ul of 100× compound, 50 ul membrane solution (0.2 ug/ul), 50 ul ^35S GTPγS solution (0.8 nM) and 50 ul of SPA beads (10 mg/ml). Non-specific binding was determined by the addition of cold GTPγS to control wells. The plates were sealed with clear sealing tape and incubated at room temperature for 1 hour. GTPγS activity was detected using a Wallac Micro-Beta Trilux liquid scintillation counter. Non-specific binding was determined using 10 uM cold GTPγS.
The cAMP HTRF assay is modified from the Cisbio International kit procedure 62AM4PEJ. Assay plates were prepared by stamping 0.1 ul of 100× compound stock solutions diluted in DMSO or DMSO alone into 384 well NBS plates. The cAMP HTRF assay was performed using cells in suspension. The cAMP HTRF assay buffer consisted of Hank's Balanced Salt Solution (HBSS), 2 mM CaCl2, 5 mM MgCl2, 20 mM HEPES and 1 mM 3-isobutyl-1-methylxanthine (IBMX) (added fresh at the time of assay). For pertussis toxin treatment pertussis toxin (100 ng/ml) was added to culture medium for 16 hours prior to assay. Confluent cells were disrupted with cell dissociation buffer count cells then centrifuged at 1000×g for minutes. The cell pellet was resuspended in assay buffer alone for basal cAMP measurements or with 0.75 uM forskolin (added immediately prior to addition to wells) for addition to all other wells. Using a Multidrop 384 (Lab systems) 10 ul of cell suspension was added to each well containing compound or DMSO. The plates were incubated at room temperature for 30 minutes covered. During this time the cAMP standard curve was prepared as per manufacturer's instruction. At the end of the incubation 10 ul of anti-cAMP cryptate and 10 ul cAMP-XL, diluted in manufacturer's lysis buffer, were added to each well. The plated were incubated at room temperature for 60 minutes covered then read on an Envision plate reader (Perkin Elmer) and the 665 nm/620 nm fluorescence ratio determined Fluorescence ratio values were converted to molar cAMP concentrations from the standard curve using the GraphPad Prism program.

Sequence of G protein-coupled receptor 88 (Q9GZN0 whole entry, species assumed): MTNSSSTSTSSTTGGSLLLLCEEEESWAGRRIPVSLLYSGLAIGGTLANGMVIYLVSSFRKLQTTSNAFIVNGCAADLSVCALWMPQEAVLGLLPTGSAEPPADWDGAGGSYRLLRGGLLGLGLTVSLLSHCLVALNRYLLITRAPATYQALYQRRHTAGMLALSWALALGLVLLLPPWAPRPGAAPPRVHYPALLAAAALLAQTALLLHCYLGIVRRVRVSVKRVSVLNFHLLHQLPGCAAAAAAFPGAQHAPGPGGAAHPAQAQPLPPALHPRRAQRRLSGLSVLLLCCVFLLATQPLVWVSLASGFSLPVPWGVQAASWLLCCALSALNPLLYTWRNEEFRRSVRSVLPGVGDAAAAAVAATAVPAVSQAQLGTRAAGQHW

Row | SMILES | EC50 (numeric value printed) [nM] | EC50 (class symbol X) [nM]
1 | COc1cc(-c2ccc(C)cc2)ccc1[C@H](CO)NC(=O)[C@H]1C[C@@H]1c1cccs1 [Example 12, (1S,2S)-2-Thiophen-2-yl-cyclopropanecarboxylic acid [(R)-2-hydroxy-1-(3-methoxy-4′-methyl-biphenyl-4-yl)-ethyl]-amide] |  | 62 to 130
2 | CCC(CC)COc1ccc([C@H](CO)NC(=O)[C@H]2C[C@@H]2c2ccccc2)c(OC)c1 [Example 3, (1S,2S)-2-Phenyl-cyclopropanecarboxylic acid {(R)-1-[4-(2-ethyl-butoxy)-2-methoxy-phenyl]-2-hydroxy-ethyl}-amide] |  | 62 to 130
3 | CC[C@H](C)COc1ccc([C@H](CO)NC(=O)[C@H]2C[C@@H]2c2cccs2)cc1 [Example 6, (1S,2S)-2-Thiophen-2-yl-cyclopropanecarboxylic acid {(R)-2-hydroxy-1-[4-((S)-2-methyl-butoxy)-phenyl]-ethyl}-amide] | 124 | 

Continued, in another order:

Row | EC50 (numeric value printed) [nM] | SMILES | EC50 (class symbol X) [nM]
4 | 81 | Cc1ccc(-c2ccc([C@H](CO)NC(=O)C3CC3c3cccs3)cc2)cc1 (stereo in doubt) [Example 5, (1S,2S)-2-Thiophen-2-yl-cyclopropanecarboxylic acid [(R)-2-hydroxy-1-(4′-methyl-biphenyl-4-yl)-ethyl]-amide] | 
5 | 74 | CCCC(C)COc1ccc([C@H](CO)NC(=O)[C@H]2C[C@@H]2c2cccs2)cc1 (stereo partly drawn) [Example 15, (1S,2S)-2-Thiophen-2-yl-cyclopropanecarboxylic acid {(R)-2-hydroxy-1-[4-(2-methyl-pentyloxy)-phenyl]-ethyl}-amide] | 
